ChEMBL document CHEMBL1201862, “PubChem BioAssay data set” (2004)
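All cell lines were grown in 96-well plates and treated with compound for 48 hours. GI50 is the concentration that inhibits growth by half.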 Activity calls are given as the source filed them. Rule as the data show it: active = GI50 up to about 1.1 µM and inactive = higher.

Key:
Assay in all cases: DTP human tumour cell line panel, 48 h
A549 = test system: A549
CAKI-1 = test system: CAKI-1
COLO 205 = test system: COLO 205
EKVX = test system: EKVX
HCC 2998 = test system: HCC 2998
HCT-116 = test system: HCT-116
HL-60 = test system: HL-60
IGROV-1 = test system: IGROV-1
K562 = test system: K562
KM12 = test system: KM12
M14 = test system: M14
MOLT-4 = test system: MOLT-4
NCI-H23 = test system: NCI-H23
OVCAR-5 = test system: OVCAR-5
SK-MEL-2 = test system: SK-MEL-2
SK-OV-3 = test system: SK-OV-3
U-251 = test system: U-251
NCI-H226 = test system: NCI-H226

Measured: GI50

CN1C(=O)C(C)(C)NS1(=O)=O
inactive: A549 > 100 µM | CAKI-1 > 100 µM | COLO 205 > 100 µM | EKVX > 100 µM | HCC 2998 > 100 µM | HCT-116 > 100 µM | HL-60 > 100 µM | IGROV-1 > 100 µM | K562 > 100 µM | KM12 > 100 µM | M14 > 100 µM | MOLT-4 > 100 µM | NCI-H23 > 100 µM | OVCAR-5 > 100 µM | SK-MEL-2 > 100 µM | SK-OV-3 > 100 µM | U-251 > 100 µM

COc1ccc(C(=O)N/N=C/c2c(C)n(C)n(-c3ccccc3)c2=O)cc1
inactive: A549 > 100 µM | COLO 205 > 100 µM | EKVX > 100 µM | HCC 2998 > 100 µM | HCT-116 > 100 µM | HL-60 > 100 µM | IGROV-1 > 100 µM | K562 > 100 µM | KM12 > 100 µM | M14 > 100 µM | MOLT-4 > 100 µM | NCI-H226 > 100 µM | NCI-H23 > 100 µM | SK-MEL-2 > 100 µM | SK-OV-3 > 100 µM | U-251 > 100 µM

O=C(CC1(O)C(=O)Nc2ccccc21)c1cccc(O)c1 (stereo not given)
inactive: A549 > 100 µM | CAKI-1 > 100 µM | COLO 205 > 100 µM | EKVX > 100 µM | HCT-116 > 100 µM | HL-60 > 100 µM | IGROV-1 > 100 µM | K562 > 100 µM | M14 > 100 µM | MOLT-4 > 100 µM | NCI-H226 > 100 µM | NCI-H23 > 100 µM | OVCAR-5 > 100 µM | SK-MEL-2 > 100 µM | SK-OV-3 > 100 µM

C#CC1(O)CCC2C3CCc4cc(Oc5nc(F)nc(-c6c7ccccc7c7sc8ccccc8n67)n5)ccc4C3CC[C@@]21C (stereo not given in full)
inactive: A549 > 100 µM | CAKI-1 > 100 µM | COLO 205 > 100 µM | HCC 2998 > 100 µM | HCT-116 > 100 µM | HL-60 > 100 µM | IGROV-1 > 100 µM | K562 > 100 µM | KM12 > 100 µM | M14 26.1 µM | MOLT-4 42 µM | NCI-H226 > 100 µM | NCI-H23 33.3 µM | OVCAR-5 > 100 µM | SK-MEL-2 > 100 µM | U-251 75.7 µM

C/N=N/N(C)C(=O)NC
inactive: A549 > 100 µM | CAKI-1 > 100 µM | COLO 205 > 100 µM | HCC 2998 > 100 µM | HCT-116 > 100 µM | HL-60 > 100 µM | IGROV-1 > 100 µM | K562 > 100 µM | KM12 > 100 µM | M14 > 100 µM | MOLT-4 > 100 µM | NCI-H23 > 100 µM | OVCAR-5 > 100 µM | SK-MEL-2 > 100 µM | SK-OV-3 > 100 µM | U-251 > 100 µM

c1cncc(C2N3CCCCC3[C@@H]3c4[nH]c5ccccc5c4CCN23)c1 (stereo not given in full)
inactive: A549 > 100 µM | CAKI-1 > 100 µM | EKVX > 100 µM | HCT-116 > 100 µM | HL-60 > 100 µM | IGROV-1 > 100 µM | K562 > 100 µM | M14 > 100 µM | MOLT-4 > 100 µM | NCI-H23 > 100 µM | OVCAR-5 > 100 µM | SK-MEL-2 > 100 µM | SK-OV-3 > 100 µM | U-251 > 100 µM

COC1=CC(=O)C2[C@H]3Cc4ccccc4[C@H]3C2(C)C1=O (stereo not given in full)
inactive: A549 > 100 µM | CAKI-1 > 100 µM | COLO 205 > 100 µM | EKVX > 100 µM | HCC 2998 > 100 µM | IGROV-1 > 100 µM | K562 52.1 µM | KM12 > 100 µM | M14 > 100 µM | MOLT-4 91.6 µM | NCI-H226 81.8 µM | NCI-H23 > 100 µM | OVCAR-5 > 100 µM | SK-MEL-2 > 100 µM | SK-OV-3 > 100 µM | U-251 > 100 µM

COC(=O)[C@@H]1C[C@H](c2ccc(OC)c(OC)c2)OC1=O.COC(=O)[C@H]1C[C@H](c2ccc(OC)c(OC)c2)OC1=O
inactive: A549 > 100 µM | CAKI-1 > 100 µM | COLO 205 > 100 µM | EKVX > 100 µM | HCC 2998 61.9 µM | HCT-116 > 100 µM | HL-60 > 100 µM | IGROV-1 > 100 µM | K562 > 100 µM | KM12 > 100 µM | M14 > 100 µM | MOLT-4 > 100 µM | NCI-H226 > 100 µM | NCI-H23 > 100 µM | OVCAR-5 > 100 µM | SK-OV-3 > 100 µM | U-251 > 100 µM

CCCOc1ccc(/C=C\c2cc(OC)c(OC)c(OC)c2)cc1
inactive: A549 40.7 µM | CAKI-1 58.3 µM | COLO 205 39.2 µM | EKVX 87.5 µM | HCT-116 40.5 µM | HL-60 18.9 µM | IGROV-1 > 100 µM | K562 23.8 µM | KM12 28.4 µM | M14 53.3 µM | NCI-H226 > 100 µM | OVCAR-5 10.1 µM | U-251 68.9 µM
